Test in all cases: DSF 100 kinase selectivity screen;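 also: compound tested at 20 µM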
What all share (assay type): binding

In experiment [1] the target is T1, ~100 representative kinases (Homo sapiens, UniProt Q8IU85).
T1 construct: Recombinant protein kinase domains with a concentration of 2 μM
To be noted: Protein CAMK1D; average of three replicates. In outline:
(§1)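 Each kinase domain, at 2 μM, is mixed with 20 μM test compound and SYPRO Orange in Hepes (20 mM, pH 7.5) with 500 mM NaCl. Temperature is then raised at 3°C/min and fluorescence-monitored unfolding yields the melting temperature change, ΔTm in degrees Celsius.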

Experiment [2] deals with T2, ~100 representative kinases (Homo sapiens, UniProt P45985).
T2 construct: Recombinant protein kinase domains with a concentration of 2 μM
T2 sequence (P45985 1-399): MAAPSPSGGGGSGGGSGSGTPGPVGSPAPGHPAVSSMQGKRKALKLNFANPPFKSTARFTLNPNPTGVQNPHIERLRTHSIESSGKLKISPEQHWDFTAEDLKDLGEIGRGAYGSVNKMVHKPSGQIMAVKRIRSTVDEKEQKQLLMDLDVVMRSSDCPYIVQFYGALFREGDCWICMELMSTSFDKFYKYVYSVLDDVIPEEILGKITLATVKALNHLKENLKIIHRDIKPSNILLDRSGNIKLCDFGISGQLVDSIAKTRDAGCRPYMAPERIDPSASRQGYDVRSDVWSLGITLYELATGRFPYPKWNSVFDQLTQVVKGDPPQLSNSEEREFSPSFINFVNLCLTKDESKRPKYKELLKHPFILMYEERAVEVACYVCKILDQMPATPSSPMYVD
To be noted: protein MAP2K4; average of three replicates. In outline: as §1

Experiment [3] concerns the target T3, ~100 representative kinases (Homo sapiens, UniProt Q8TF76).
T3 construct: Recombinant protein kinase domains with a concentration of 2 μM
T3 sequence (Q8TF76 1-798): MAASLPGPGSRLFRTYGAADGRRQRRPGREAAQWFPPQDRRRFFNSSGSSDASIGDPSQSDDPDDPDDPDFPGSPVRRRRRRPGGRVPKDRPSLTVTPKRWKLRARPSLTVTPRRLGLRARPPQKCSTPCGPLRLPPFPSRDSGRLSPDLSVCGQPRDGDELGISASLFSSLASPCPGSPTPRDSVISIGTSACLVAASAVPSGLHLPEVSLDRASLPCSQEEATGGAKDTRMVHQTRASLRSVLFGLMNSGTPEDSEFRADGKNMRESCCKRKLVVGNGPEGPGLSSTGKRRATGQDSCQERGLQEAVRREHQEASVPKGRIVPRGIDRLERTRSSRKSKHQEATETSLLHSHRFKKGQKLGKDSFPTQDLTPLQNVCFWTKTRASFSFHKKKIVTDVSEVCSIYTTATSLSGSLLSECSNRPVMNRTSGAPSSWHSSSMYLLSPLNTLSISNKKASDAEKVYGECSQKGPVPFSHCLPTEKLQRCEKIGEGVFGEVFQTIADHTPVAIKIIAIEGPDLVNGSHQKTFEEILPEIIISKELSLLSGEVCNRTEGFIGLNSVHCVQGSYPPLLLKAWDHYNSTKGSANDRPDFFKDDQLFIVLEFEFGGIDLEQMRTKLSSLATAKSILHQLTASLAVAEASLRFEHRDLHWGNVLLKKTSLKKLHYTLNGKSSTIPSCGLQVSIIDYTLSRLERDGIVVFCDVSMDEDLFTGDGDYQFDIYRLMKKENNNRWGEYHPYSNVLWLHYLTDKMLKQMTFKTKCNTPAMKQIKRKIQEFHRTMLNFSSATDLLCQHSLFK
To be noted: protein GSG2; average of three replicates. The essentials: as §1

Experiment [4] has as its target T4, ~100 representative kinases (Homo sapiens, UniProt Q13188).
T4 construct: Recombinant protein kinase domains with a concentration of 2 μM
T4 sequence (Q13188 1-491): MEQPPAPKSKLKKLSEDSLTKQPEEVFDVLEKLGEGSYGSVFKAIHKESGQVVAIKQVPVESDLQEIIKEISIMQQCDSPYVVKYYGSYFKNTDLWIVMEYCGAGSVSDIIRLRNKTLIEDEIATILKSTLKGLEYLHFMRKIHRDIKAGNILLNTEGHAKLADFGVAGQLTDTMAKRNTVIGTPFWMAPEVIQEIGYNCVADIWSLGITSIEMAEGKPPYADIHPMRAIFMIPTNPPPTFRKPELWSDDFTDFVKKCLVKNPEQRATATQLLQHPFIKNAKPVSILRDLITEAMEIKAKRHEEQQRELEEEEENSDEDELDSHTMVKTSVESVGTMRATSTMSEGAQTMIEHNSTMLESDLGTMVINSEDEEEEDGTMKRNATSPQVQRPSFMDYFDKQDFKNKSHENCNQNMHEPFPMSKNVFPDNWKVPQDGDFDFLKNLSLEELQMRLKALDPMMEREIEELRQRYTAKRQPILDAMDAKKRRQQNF
As to conditions: Protein STK3; DSF; average of three replicates. The essentials: as §1

Experiment [5] addresses T5, ~100 representative kinases (Homo sapiens, UniProt O75582).
T5 construct: Recombinant protein kinase domains with a concentration of 2 μM
As to conditions: Protein RPS6KA5; DSF; average of three replicates. The essentials:
as §1

For experiment [6], the target named is T6, ~100 representative kinases (Homo sapiens, UniProt Q86V86).
T6 construct: Recombinant protein kinase domains with a concentration of 2 μM
To be noted: protein PIM3; average of three replicates. The essentials: as §1

For experiment [7], the target named is T7, ~100 representative kinases (Homo sapiens, UniProt P07332).
T7 construct: Recombinant protein kinase domains with a concentration of 2 μM
To be noted: protein FESA; average of three replicates. In outline:
as §1

Experiment [8] deals with T8, ~100 representative kinases (Homo sapiens, UniProt P00519).
T8 construct: Recombinant protein kinase domains with a concentration of 2 μM
To be noted: Protein ABL1; average of three replicates. The essentials: as §1

Experiment [9] addresses T9, ~100 representative kinases (Homo sapiens, UniProt Q15418).
T9 construct: Recombinant protein kinase domains with a concentration of 2 μM
As to conditions: Protein RPS6KA1; DSF; average of three replicates. In outline: as §1

Experiment [10] concerns the target T10, ~100 representative kinases (Homo sapiens, UniProt O95747).
T10 construct: Recombinant protein kinase domains with a concentration of 2 μM
As to conditions: protein OSR1; average of three replicates. The essentials: as §1

The target in experiment [11] is T11, ~100 representative kinases (Homo sapiens, UniProt P11362).
T11 construct: Recombinant protein kinase domains with a concentration of 2 μM
To be noted: protein FGFR1; average of three replicates. The essentials:
as §1

T1 sequence (Q8IU85 whole entry, the tested form may be a part): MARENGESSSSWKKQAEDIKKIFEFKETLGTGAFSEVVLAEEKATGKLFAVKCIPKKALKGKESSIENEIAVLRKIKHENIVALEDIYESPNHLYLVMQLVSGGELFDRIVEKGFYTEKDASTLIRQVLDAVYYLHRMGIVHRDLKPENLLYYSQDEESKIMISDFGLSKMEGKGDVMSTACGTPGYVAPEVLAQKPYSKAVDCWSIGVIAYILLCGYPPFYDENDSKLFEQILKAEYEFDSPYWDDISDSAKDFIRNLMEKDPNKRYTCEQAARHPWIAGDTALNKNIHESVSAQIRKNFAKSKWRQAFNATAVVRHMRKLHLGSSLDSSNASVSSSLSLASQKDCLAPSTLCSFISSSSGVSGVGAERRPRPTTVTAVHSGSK
T7 sequence (P07332 whole entry, the tested form may be a part): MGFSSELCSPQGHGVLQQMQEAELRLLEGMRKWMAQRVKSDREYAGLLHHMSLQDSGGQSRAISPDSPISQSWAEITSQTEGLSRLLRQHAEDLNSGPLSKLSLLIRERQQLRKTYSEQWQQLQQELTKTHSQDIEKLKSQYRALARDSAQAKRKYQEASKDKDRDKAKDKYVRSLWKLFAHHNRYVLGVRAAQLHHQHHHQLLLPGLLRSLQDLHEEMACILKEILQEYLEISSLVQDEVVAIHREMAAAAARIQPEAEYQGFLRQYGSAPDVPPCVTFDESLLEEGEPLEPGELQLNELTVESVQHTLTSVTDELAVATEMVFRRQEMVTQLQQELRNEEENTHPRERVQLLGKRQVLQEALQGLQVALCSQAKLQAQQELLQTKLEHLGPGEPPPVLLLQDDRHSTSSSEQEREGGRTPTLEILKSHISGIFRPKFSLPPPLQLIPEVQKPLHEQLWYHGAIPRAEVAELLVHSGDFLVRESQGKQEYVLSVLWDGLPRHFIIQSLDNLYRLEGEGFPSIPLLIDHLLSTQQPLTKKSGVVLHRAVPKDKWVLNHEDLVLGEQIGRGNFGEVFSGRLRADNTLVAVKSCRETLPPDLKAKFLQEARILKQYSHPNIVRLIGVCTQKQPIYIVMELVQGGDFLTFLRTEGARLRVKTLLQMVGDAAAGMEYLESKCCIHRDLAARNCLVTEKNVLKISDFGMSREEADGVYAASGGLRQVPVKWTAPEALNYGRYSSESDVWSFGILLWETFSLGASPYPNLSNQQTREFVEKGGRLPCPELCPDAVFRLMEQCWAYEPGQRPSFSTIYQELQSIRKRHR
T10 sequence (O95747 whole entry, the tested form may be a part): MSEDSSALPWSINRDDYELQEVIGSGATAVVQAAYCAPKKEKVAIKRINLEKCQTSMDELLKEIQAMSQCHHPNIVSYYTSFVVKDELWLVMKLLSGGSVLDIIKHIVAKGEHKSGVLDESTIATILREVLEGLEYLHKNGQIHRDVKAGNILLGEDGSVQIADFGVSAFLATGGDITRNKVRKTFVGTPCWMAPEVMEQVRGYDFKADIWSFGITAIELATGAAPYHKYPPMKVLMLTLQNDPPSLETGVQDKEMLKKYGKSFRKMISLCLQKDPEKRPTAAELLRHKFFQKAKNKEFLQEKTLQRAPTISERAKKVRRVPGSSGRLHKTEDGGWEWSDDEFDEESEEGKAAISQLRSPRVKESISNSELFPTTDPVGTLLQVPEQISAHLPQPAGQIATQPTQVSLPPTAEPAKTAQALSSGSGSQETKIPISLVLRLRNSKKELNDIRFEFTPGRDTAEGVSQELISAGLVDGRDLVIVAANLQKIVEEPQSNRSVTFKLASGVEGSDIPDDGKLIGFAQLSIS
T8 sequence (P00519 whole entry, the tested form may be a part): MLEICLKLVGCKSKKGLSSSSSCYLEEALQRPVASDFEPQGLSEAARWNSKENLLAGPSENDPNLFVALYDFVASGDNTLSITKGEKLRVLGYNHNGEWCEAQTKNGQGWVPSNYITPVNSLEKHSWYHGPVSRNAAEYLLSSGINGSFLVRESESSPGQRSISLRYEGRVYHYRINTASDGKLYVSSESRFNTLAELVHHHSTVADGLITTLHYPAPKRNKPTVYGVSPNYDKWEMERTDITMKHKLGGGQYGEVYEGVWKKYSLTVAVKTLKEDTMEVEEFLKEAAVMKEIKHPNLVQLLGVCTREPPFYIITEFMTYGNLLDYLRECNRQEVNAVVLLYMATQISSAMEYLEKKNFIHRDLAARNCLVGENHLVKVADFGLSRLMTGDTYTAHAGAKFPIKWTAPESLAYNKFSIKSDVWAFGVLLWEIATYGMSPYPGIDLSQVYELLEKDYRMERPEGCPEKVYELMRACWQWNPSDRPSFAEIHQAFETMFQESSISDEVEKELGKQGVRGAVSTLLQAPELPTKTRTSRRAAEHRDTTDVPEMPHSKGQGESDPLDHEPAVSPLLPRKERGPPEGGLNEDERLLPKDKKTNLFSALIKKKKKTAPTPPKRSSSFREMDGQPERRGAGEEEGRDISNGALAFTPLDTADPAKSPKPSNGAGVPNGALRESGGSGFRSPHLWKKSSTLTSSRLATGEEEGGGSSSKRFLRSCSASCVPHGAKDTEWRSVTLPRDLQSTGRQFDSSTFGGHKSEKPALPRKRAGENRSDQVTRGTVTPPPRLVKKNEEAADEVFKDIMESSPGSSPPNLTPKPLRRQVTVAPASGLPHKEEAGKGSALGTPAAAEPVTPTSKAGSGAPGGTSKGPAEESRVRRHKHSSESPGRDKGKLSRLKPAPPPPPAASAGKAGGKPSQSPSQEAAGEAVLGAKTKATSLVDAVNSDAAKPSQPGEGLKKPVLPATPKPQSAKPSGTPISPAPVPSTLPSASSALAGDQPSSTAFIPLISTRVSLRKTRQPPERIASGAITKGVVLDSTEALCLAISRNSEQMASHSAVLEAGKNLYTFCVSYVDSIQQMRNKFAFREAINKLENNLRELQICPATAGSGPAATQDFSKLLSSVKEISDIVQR
T9 sequence (Q15418 whole entry, the tested form may be a part): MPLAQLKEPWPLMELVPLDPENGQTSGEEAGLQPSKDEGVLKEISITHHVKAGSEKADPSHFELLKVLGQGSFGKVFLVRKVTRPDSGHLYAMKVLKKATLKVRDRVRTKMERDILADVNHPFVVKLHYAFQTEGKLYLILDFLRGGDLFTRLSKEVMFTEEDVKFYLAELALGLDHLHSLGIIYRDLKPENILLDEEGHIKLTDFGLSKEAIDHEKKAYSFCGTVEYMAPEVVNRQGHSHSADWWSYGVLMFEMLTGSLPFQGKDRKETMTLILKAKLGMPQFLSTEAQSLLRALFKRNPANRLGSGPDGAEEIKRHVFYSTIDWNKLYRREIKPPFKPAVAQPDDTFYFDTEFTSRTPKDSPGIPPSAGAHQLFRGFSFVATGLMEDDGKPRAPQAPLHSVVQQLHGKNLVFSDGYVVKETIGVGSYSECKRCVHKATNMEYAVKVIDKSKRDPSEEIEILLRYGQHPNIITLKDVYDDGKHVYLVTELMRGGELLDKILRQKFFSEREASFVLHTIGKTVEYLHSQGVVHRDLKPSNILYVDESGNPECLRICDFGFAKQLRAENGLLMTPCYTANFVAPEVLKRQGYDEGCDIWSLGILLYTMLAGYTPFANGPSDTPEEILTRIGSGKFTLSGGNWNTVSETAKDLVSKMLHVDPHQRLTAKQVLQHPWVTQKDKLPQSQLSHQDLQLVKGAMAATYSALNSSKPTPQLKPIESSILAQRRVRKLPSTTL
T5 sequence (O75582 whole entry, the tested form may be a part): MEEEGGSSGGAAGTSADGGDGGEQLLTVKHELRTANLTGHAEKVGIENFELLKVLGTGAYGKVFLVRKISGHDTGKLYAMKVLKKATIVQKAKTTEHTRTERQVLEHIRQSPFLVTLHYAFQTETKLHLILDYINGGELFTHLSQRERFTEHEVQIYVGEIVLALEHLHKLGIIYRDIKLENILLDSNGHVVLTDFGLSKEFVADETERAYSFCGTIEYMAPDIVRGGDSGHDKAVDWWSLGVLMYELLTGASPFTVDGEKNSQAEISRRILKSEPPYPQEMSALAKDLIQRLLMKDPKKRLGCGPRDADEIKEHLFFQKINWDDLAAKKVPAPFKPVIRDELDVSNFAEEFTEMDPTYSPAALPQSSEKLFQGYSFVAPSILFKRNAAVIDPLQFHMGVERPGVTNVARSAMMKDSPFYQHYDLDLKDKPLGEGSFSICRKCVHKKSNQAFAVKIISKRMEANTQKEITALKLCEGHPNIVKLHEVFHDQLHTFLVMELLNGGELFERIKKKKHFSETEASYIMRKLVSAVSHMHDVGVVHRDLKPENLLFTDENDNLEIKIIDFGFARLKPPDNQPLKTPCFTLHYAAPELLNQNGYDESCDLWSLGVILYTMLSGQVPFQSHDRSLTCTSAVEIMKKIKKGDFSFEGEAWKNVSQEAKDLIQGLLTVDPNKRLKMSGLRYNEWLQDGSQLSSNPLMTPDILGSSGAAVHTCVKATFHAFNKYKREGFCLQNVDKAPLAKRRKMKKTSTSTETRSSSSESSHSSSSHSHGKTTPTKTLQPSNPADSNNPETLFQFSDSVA

Turning to `Cc1cc(F)ccc1NC(=O)C1(C(=O)Nc2cccc(-c3c[nH]c4ncnc(N5CCOCC5)c34)c2)CC1` [Compound 24], the dTm in [1] is -2.03 K; in experiment [2] it was 5.80 K; in experiment [3] it was -2.81 K; in [4] it was 6.63 K; in [5], -1.10 K; in [6], 0.00331 K. Besides, the dTm in experiment [7] was determined as 4.33 K; in experiment [8] it was 1.15 K; in experiment [9] it was 0.19 K; in experiment [10], 0.69 K; in [11], 0.81 K.

For `O=C(Nc1cccc(-c2c[nH]c3ncnc(N4CCOCC4)c23)c1)C1(C(=O)Nc2cc(Br)c(F)cc2F)CC1` [Compound 25], the dTm is reported as 3.75 K in [1]; 5.47 K in experiment [2]; -3.43 K in experiment [3]; 4.96 K in experiment [4]; 0.35 K in experiment [5]; -0.17 K in experiment [6]. Besides, the dTm in experiment [7] was 3.29 K; in experiment [8], 1.76 K; in [9], -1.87 K; in experiment [10], 0.13 K; in experiment [11] it was 0.52 K.

As to `O=C(Nc1cccc(-c2c[nH]c3ncnc(N4CCOCC4)c23)c1)C1(C(=O)Nc2ccc(F)c(Br)c2F)CC1` [Compound 26], the dTm in experiment [1] was 2.09 K; in experiment [2], 5.24 K; in experiment [3], -2.00 K; in [4], 5.86 K; in experiment [5], -0.55 K; in experiment [6] it was 0.88 K. In addition, the dTm in experiment [7] is on record as 3.48 K; in [8], 1.83 K; in experiment [9], 0.78 K; in experiment [10], -0.0329 K; in experiment [11] it was 0.99 K.

With `O=C(Nc1cc(F)cc(Br)c1)C1(C(=O)Nc2cccc(-c3c[nH]c4ncnc(N5CCOCC5)c34)c2)CC1` [Compound 27], the dTm in experiment [1] is 1.52 K; in [2], 5.62 K; in [3], -3.53 K; in experiment [4] it was 2.54 K; in experiment [5], 0.67 K; in experiment [6], -0.05 K. Besides, the dTm in experiment [7] is 3.58 K; in experiment [8] it was 1.02 K; in experiment [9] it was 0.00 K; in [10] it was 0.75 K; in [11], 0.76 K.

In the case of `CC(C)(C)c1cc(NC(=O)Nc2cccc(-c3c[nH]c4ncnc(N5CCOCC5)c34)c2)n(-c2ccc3ncccc3c2)n1` [Compound 28], the dTm in experiment [1] is listed as 2.13 K; in experiment [2], 6.08 K; in experiment [3] it was -2.39 K; in experiment [4] it was 10.40 K; in experiment [5], 16.84 K; in experiment [6] it was 4.96 K. For the same compound, the dTm in experiment [7] was determined as 9.54 K; in experiment [8], 7.77 K; in [9], 0.32 K; in experiment [10] it was 4.85 K; in [11], 8.37 K.

As to `Cc1ccc(-n2nc(C(C)(C)C)cc2NC(=O)Nc2cccc(-c3c[nH]c4ncnc(N5CCOCC5)c34)c2)cc1` [Compound 29], the dTm in experiment [1] is reported as 1.72 K; in experiment [2] it was 5.30 K; in experiment [3], -2.91 K; in experiment [4] it was 10.79 K; in experiment [5], 11.96 K; in experiment [6] it was 0.33 K. The dTm in experiment [7] amounted to 0.00 K; in experiment [8], 10.07 K; in experiment [9], 0.38 K; in experiment [10], 0.52 K; in experiment [11], 5.95 K.

As for `Cc1ccc(-n2nc(C(C)(C)C)cc2NC(=O)Nc2cccc(-c3c[nH]c4nc(Cl)nc(N5CCOCC5)c34)c2)cc1` [Compound 30], the dTm is on record as -0.23 K in experiment [1]; 1.92 K in [2]; -1.55 K in experiment [3]; 5.14 K in experiment [4]; 7.61 K in experiment [5]; -1.11 K in [6]. In addition, the dTm in [7] is recorded as 3.55 K; in [8], 2.41 K; in experiment [9], -0.59 K; in [10] it was -1.12 K; in [11] it was 1.65 K.

Take `CC(=O)N1CCN(c2nc(Cl)nc3[nH]cc(-c4cccc(NC(=O)Nc5cc(C(C)(C)C)nn5-c5ccc(C)cc5)c4)c23)CC1` [Compound 31]: the dTm was -0.11 K in experiment [1]; 1.72 K in experiment [2]; -3.39 K in [3]; 6.29 K in experiment [4]; 8.01 K in experiment [5]; 0.67 K in [6]. The dTm is 0.00 K in experiment [7]; 2.73 K in [8]; -0.67 K in experiment [9]; -2.10 K in experiment [10]; 1.76 K in [11].

Regarding `CCSc1nc(NC)c2c(-c3cccc(NC(=O)Nc4cc(C(C)(C)C)nn4-c4ccc(C)cc4)c3)c[nH]c2n1` [Compound 32], the dTm in [1] is listed as 0.45 K; in [2] it was 0.66 K; in [3] it was 0.63 K; in experiment [4], 0.53 K; in experiment [5], 0.23 K; in [6], 2.14 K. Besides, the dTm in experiment [7] is listed as 3.81 K; in experiment [8] it was 2.07 K; in experiment [9], 0.43 K; in [10], -0.46 K; in experiment [11], 0.60 K.

On to `COc1cc(C(=O)N2CCOCC2)c(F)cc1Nc1nc(N(C)C)c2c(Cl)c[nH]c2n1` [Compound 36], for which the dTm in experiment [1] was 1.95 K; in experiment [2], 10.31 K; in [3] it was -1.75 K; in experiment [4] it was -0.64 K; in [5] it was 2.79 K; in [6], -0.33 K. Moreover, the dTm is reported as 2.67 K in experiment [7]; 1.16 K in [8]; 1.99 K in experiment [9]; 1.88 K in [10]; -0.10 K in experiment [11].

Source of the values: paper PMC12136037, “Type II kinase inhibitors that target Parkinson’s disease–associated LRRK2” (Science Advances, 2025).
